One experiment has as its target T1, HLA-A2 of T2 cells (Homo sapiens, UniProt P04439, D140Y/D185E/D98H/E176V/E277Q/G131W/G231S/I119V/I121R/I166T/I218V/L300P/L318F/N151K/N90K/P208A/P217A/Q86G/Q94H/R138H/R169H/T345S).
T1 construct: cell surface expression of HLA-A2 is lower (30-40%) than in normal LBL lines transfected with HLA-A2; endogenous in cells; host or cells: T2 (transport deletion mutant) human lymphoblastoid cells, obtained from Dr. Peter Creswell
The experiment is described as follows: Reactivity of MA2.1 mAb with T2 cells after culture with peptide (immunofluorescence, FL1). To be noted: peptide 50 μg/ml, overnight culture in IMDM-FCS. Type of experiment: cell-based.

Experiment [1] deals with C1R:A2 cells. Kind of experiment: Lysis of peptide-sensitized C1R:A2 cells by CTL cultures induced in vitro with C43 and C84. Particulars: E:T 10:1, donor 51. Type of experiment: cell-based, human.
For experiment [2], the system named is C1R:A2 cells. Kind of experiment: Ag specificity of the 41.CD8+ CTL line on peptide-pulsed targets. Type of experiment: cell-based, human. To be noted: peptide-pulsed C1R:A2, E:T 10:1. On the procedure: (§1) FIG. 2A. Ag specificity of the 41.CD8^+ CTL line. C1R:A2 cells were pre-pulsed with either HER-2 peptides or control MUC-1 peptides before being incubated with effectors. The effector to target ratio was 10:1. C1R:A1 and C1R:A3 targets were pre-pulsed with the same peptides in the same conditions as C1R:A2 cells. Results for C1R:A1 and C1R:A3 show the difference between specific lysis of targets preincubated with peptides and control C1R:A1 and C1R:A3 targets. Specific lysis of control C1R:A1 and C1R:A3 cells was less than 10% at the same E:T ratio. Shown in FIG. 2A are results after 4 hrs' incubation.
Tumor cells and fibroblasts were labeled with 200 μCi of ^51Cr (Na^51CrO4; Amersham, Arlington Heights, Ill.) for 90 min at 37° C. (Ioannides et al., 1991). Lymphoblastoid cells and HLA-A2 transfectants were labeled overnight in RPMI-FCS, then washed three times and incubated with effector cells in RPMI-FCS in an incubator with 5%. CO2 (Bednarek et al., 1991; Gammon et al., 1992). When peptide recognition was determined, targets were incubated with 25 μM of peptides overnight during ^51Cr labeling or with 10 μM peptide for 2 h at 37° C. in RPMI-FCS then washed three times before being incubated with effector cells. Separate controls for spontaneous and total lysis were made for each peptide-pulsed target (Ioannides et al., 1991; Bednarek et al., 1991; Gammon et al., 1992). After 4-5 h, 100 μl of supernatant was collected and counted. To determine maximum lysis in 20-h assays, plates were left undisturbed in the incubator and the supernatant was collected after overnight incubation. For cold target inhibition studies, C1R:A2 cells were preincubated with HER-2 or control peptides overnight, then washed and admixed with ^51Cr-labeled targets at 2:1 and 6:1 (cold:hot targets) ratios. Percentage lysis was calculated from the formula: 100×[(E−S)/(T−S)], where E is experimental release, S is release in the absence of CTL, and T is release in 2 M HCl.
These cultures were propagated and expanded by periodic cycles of restimulation with peptide-pulsed fresh autologous PBMC as antigen-presenting cells. After the fourth stimulation cells were gradually adapted to growth in RPMI-FCS by replacing 25% of the culture medium every 3 days with RPMI-FCS over a period of 2 weeks. CD3^+CD8^+CD4^− cells were isolated from bulk CTL cultures by positive selection on anti-CD8 mAb-coated culture flasks (AIS Micro CELLector, Applied Immune Sciences, Menlo Park, Calif.) as described (Letessier et al., 1991). Isolated CD8^+ cells were restimulated with HER-2 peptide-pulsed PBMC, either autologous or in some instances allogeneic that matched only HLA-A2 with the responding cells. […]

Experiment [3] deals with C1R:A1 cells (HLA-A1 transfectants). Described as above. Type of experiment: cell-based, human. On the procedure:
as §1
Tumor cells and fibroblasts were labeled with 200 μCi of ^51Cr (Na^51CrO4; Amersham, Arlington Heights, Ill.) for 90 min at 37° C. (Ioannides et al., 1991). Lymphoblastoid cells and HLA-A2 transfectants were labeled overnight in RPMI-FCS, then washed three times and incubated with effector cells in RPMI-FCS in an incubator with 5%. […] When peptide recognition was determined, targets were incubated with 25 μM of peptides overnight during ^51Cr labeling or with 10 μM peptide for 2 h at 37° C. in RPMI-FCS then washed three times before being incubated with effector cells. […] After 4-5 h, 100 μl of supernatant was collected and counted. […] Percentage lysis was calculated from the formula: 100×[(E−S)/(T−S)], where E is experimental release, S is release in the absence of CTL, and T is release in 2 M HCl. […]

In experiment [4] the test system is HLA-A2- CTL from donors 14 and 15. Kind of experiment: Presentation of peptides by HLA-A2+ transfectants to HLA-A2- CTL. Type of experiment: cell-based, human. To be noted: CTL induced with the same peptides.

Take “ELVSEFSRV [Peptide C84, HER-2:971-979 analog, Met(P9) substituted by Val]”: the “FL1 of T2 cells stained with MA2.1 mAb” value in the experiment with HLA-A2 of T2 cells is listed as “significant increase in FL1”. Besides, the “difference between HER-2 peptide and control targets recognition” value in the experiment on C1R:A2 cells [1] (4-hr assay) was “not significant”; with C1R:A2 cells [1] (20-hr assay), “significant”. Further, in the experiment on C1R:A2 cells [2], the “recognition by 41.CD8+ CTL line” value is listed as “recognized”. In addition, the “lysis of peptide pulsed versus control targets by 41.CD8+ CTL” value in experiment [3] is listed as “failed to elicit a higher lysis of peptide pulsed than of control targets”. Moreover, in experiment [4], the “cross-presentation to HLA-A2- CTL” value is “did not cross-present”.
Consider “RFRELVSEFSRMAR [Peptide C43, HER-2:968-981 14mer peptide]”, for which the “FL1 of T2 cells stained with MA2.1 mAb” value with HLA-A2 of T2 cells is on record as “failed to significantly increase FL1”. Moreover, the “difference between HER-2 peptide and control targets recognition” value with C1R:A2 cells [1] (4-hr assay) was “not significant”; with C1R:A2 cells [1] (20-hr assay) it was “significant”. In addition, the “recognition by 41.CD8+ CTL line” value with C1R:A2 cells [2] was “recognized”. The “lysis of peptide pulsed versus control targets by 41.CD8+ CTL” value in experiment [3] is “failed to elicit a higher lysis of peptide pulsed than of control targets”. Moreover, in experiment [4], the “cross-presentation to HLA-A2- CTL” value was “did not cross-present”.
